Data published in ChEMBL document CHEMBL3885861, “Open TG-GATES”.

Organism: Rattus norvegicus
Assay: Open TG-GATES - Regimen: Daily Repeat
Format: toxicity, organism-based, Sprague-Dawley
Parameters: regimen Daily Repeat, gender Male, age 6 weeks
Details: in vivo, po, route gavage; for APTT / Bas / Eos / Fbg / Hb / Ht / Lym / MCH / MCHC / MCV / Mono / Neu / PT / Plat / RBC / Ret / WBC: tissue Blood; for KIDNEY_L / KIDNEY_R / KIDNEY_TOTAL: tissue Kidney; for LIVER: tissue Liver; for A/G / ALP / ALT / AST / BUN / CRE / Ca / Cl / DBIL / GLC / IP / K / LDH / Na / PL / RALB / TBIL / TC / TG / TP / gamma-GTP: tissue Plasma
[1] = 0 mg/kg, 72 h, dose level Control, time 3 day
[2] = 0 mg/kg, […], dose level Control, time 7 day
[3] = 0 mg/kg, […], dose level Control, time 14 day
[4] = 0 mg/kg, […], dose level Control, time 28 day
[5] = 100 mg/kg, 72 h, dose level Low, time 3 day
[6] = 100 mg/kg, […], dose level Low, time 7 day
[7] = 100 mg/kg, […], dose level Low, time 14 day
[8] = 100 mg/kg, […], dose level Low, time 28 day

O=C(O)c1cc(/N=N/c2ccc(S(=O)(=O)Nc3ccccn3)cc2)ccc1O [SULFASALAZINE]
TERMINAL_BW [1]: 237.4 g
APTT [1]: 18.3 s
Bas [1]: 0%
Eos [1]: 1%
Fbg [1]: 245.4 mg/dL
Hb [1]: 13.3 g/dL
Ht [1]: 38.5%
Lym [1]: 78.2%
MCH [1]: 22 pg
MCHC [1]: 34.7%
MCV [1]: 63.5 fL
Mono [1]: 3%
Neu [1]: 16.8%
PT [1]: 12.4 s
Plat [1]: 125.9 x10_4/uL
RBC [1]: 607.8 x10_4/ul
Ret [1]: 6.3%
WBC [1]: 93.4 x10_2/uL
KIDNEY_L [1]: 1 g
KIDNEY_R [1]: 1 g
KIDNEY_TOTAL [1]: 2 g
LIVER [1]: 11.2 g
A/G [1]: 1.4
ALP [1]: 938.8 IU/L
ALT [1]: 39.8 IU/L
AST [1]: 74.2 IU/L
BUN [1]: 16.6 mg/dL
CRE [1]: 0.4 mg/dL
Ca [1]: 11 mg/dL
Cl [1]: 102.6 meq/L
DBIL [1]: 0.1 mg/dL
GLC [1]: 207.4 mg/dL
IP [1]: 7.3 mg/dL
K [1]: 4 meq/L
LDH [1]: 226.6 IU/L
Na [1]: 140.6 meq/L
PL [1]: 157 mg/dL
RALB [1]: 3.4 g/dL
TBIL [1]: 0.2 mg/dL
TC [1]: 75.6 mg/dL
TG [1]: 104 mg/dL
TP [1]: 5.7 g/dL
gamma-GTP [1]: 1.2 IU/L
TERMINAL_BW [2]: 263.5 g
TERMINAL_BW [3]: 308.2 g
TERMINAL_BW [4]: 377.2 g
APTT [2]: 19.2 s
Bas [2]: 0%
Eos [2]: 1%
Fbg [2]: 223.4 mg/dL
Hb [2]: 14.1 g/dL
Ht [2]: 41.1%
Lym [2]: 81.6%
MCH [2]: 21.5 pg
MCHC [2]: 34.2%
MCV [2]: 62.8 fL
Mono [2]: 2.6%
Neu [2]: 14.2%
PT [2]: 12.3 s
Plat [2]: 129.3 x10_4/uL
RBC [2]: 655 x10_4/ul
Ret [2]: 5.5%
WBC [2]: 126 x10_2/uL
APTT [3]: 19.7 s
Bas [3]: 0%
Eos [3]: 1%
Fbg [3]: 229.4 mg/dL
Hb [3]: 14.7 g/dL
Ht [3]: 41.7%
Lym [3]: 78.4%
MCH [3]: 20.9 pg
MCHC [3]: 35.3%
MCV [3]: 59.2 fL
Mono [3]: 2.4%
Neu [3]: 16.8%
PT [3]: 12.2 s
Plat [3]: 115.1 x10_4/uL
RBC [3]: 703.6 x10_4/ul
Ret [3]: 3.9%
WBC [3]: 92.7 x10_2/uL
APTT [4]: 20.6 s
Bas [4]: 0%
Eos [4]: 0.8%
Fbg [4]: 217.8 mg/dL
Hb [4]: 15.6 g/dL
Ht [4]: 43.1%
Lym [4]: 83.8%
MCH [4]: 20.1 pg
MCHC [4]: 36.2%
MCV [4]: 55.6 fL
Mono [4]: 1.4%
Neu [4]: 12.4%
PT [4]: 12.5 s
Plat [4]: 98.7 x10_4/uL
RBC [4]: 775.4 x10_4/ul
Ret [4]: 2.3%
WBC [4]: 97.9 x10_2/uL
KIDNEY_L [2]: 1.1 g
KIDNEY_R [2]: 1.1 g
KIDNEY_TOTAL [2]: 2.2 g
KIDNEY_L [3]: 1.2 g
KIDNEY_R [3]: 1.2 g
KIDNEY_TOTAL [3]: 2.4 g
KIDNEY_L [4]: 1.3 g
KIDNEY_R [4]: 1.3 g
KIDNEY_TOTAL [4]: 2.5 g
LIVER [2]: 12 g
LIVER [3]: 13.3 g
LIVER [4]: 14.8 g
A/G [2]: 1.4
ALP [2]: 884.4 IU/L
ALT [2]: 33 IU/L
AST [2]: 64.6 IU/L
BUN [2]: 16.8 mg/dL
CRE [2]: 0.4 mg/dL
Ca [2]: 10.7 mg/dL
Cl [2]: 103.4 meq/L
DBIL [2]: 0.092 mg/dL
GLC [2]: 233.6 mg/dL
IP [2]: 7.5 mg/dL
K [2]: 3.5 meq/L
LDH [2]: 218.6 IU/L
Na [2]: 140.8 meq/L
PL [2]: 160.4 mg/dL
RALB [2]: 3.4 g/dL
TBIL [2]: 0.1 mg/dL
TC [2]: 78.8 mg/dL
TG [2]: 99.8 mg/dL
TP [2]: 5.9 g/dL
gamma-GTP [2]: 1.2 IU/L
A/G [3]: 1.3
ALP [3]: 900.6 IU/L
ALT [3]: 43.4 IU/L
AST [3]: 76.6 IU/L
BUN [3]: 18.6 mg/dL
CRE [3]: 0.5 mg/dL
Ca [3]: 10.6 mg/dL
Cl [3]: 103.4 meq/L
DBIL [3]: 0.1 mg/dL
GLC [3]: 189.8 mg/dL
IP [3]: 6.4 mg/dL
K [3]: 3.8 meq/L
LDH [3]: 292 IU/L
Na [3]: 140.4 meq/L
PL [3]: 155 mg/dL
RALB [3]: 3.3 g/dL
TBIL [3]: 0.2 mg/dL
TC [3]: 63.2 mg/dL
TG [3]: 175.8 mg/dL
TP [3]: 6 g/dL
gamma-GTP [3]: 1.2 IU/L
A/G [4]: 1.3
ALP [4]: 718.2 IU/L
ALT [4]: 49.2 IU/L
AST [4]: 80.6 IU/L
BUN [4]: 17.8 mg/dL
CRE [4]: 0.5 mg/dL
Ca [4]: 10.3 mg/dL
Cl [4]: 103.6 meq/L
DBIL [4]: 0.1 mg/dL
GLC [4]: 217.6 mg/dL
IP [4]: 6.1 mg/dL
K [4]: 3.7 meq/L
LDH [4]: 287.2 IU/L
Na [4]: 141.2 meq/L
PL [4]: 148.4 mg/dL
RALB [4]: 3.4 g/dL
TBIL [4]: 0.2 mg/dL
TC [4]: 68.8 mg/dL
TG [4]: 151.4 mg/dL
TP [4]: 6.2 g/dL
gamma-GTP [4]: 0.8 IU/L
TERMINAL_BW [5]: 236.6 g
APTT [5]: 18.4 s
Bas [5]: 0%
Eos [5]: 1%
Fbg [5]: 226.6 mg/dL
Hb [5]: 13.6 g/dL
Ht [5]: 39.7%
Lym [5]: 79.8%
MCH [5]: 21.5 pg
MCHC [5]: 34.3%
MCV [5]: 62.6 fL
Mono [5]: 3.2%
Neu [5]: 14.4%
PT [5]: 12.6 s
Plat [5]: 129.7 x10_4/uL
RBC [5]: 634.2 x10_4/ul
Ret [5]: 6.4%
WBC [5]: 114.1 x10_2/uL
KIDNEY_L [5]: 1 g
KIDNEY_R [5]: 1 g
KIDNEY_TOTAL [5]: 2 g
LIVER [5]: 10.9 g
A/G [5]: 1.5
ALP [5]: 979.2 IU/L
ALT [5]: 44.4 IU/L
AST [5]: 86.8 IU/L
BUN [5]: 16.4 mg/dL
CRE [5]: 0.4 mg/dL
Ca [5]: 10.9 mg/dL
Cl [5]: 103 meq/L
DBIL [5]: 0.09 mg/dL
GLC [5]: 201 mg/dL
IP [5]: 7.4 mg/dL
K [5]: 4.2 meq/L
LDH [5]: 286.8 IU/L
Na [5]: 140.4 meq/L
PL [5]: 154.6 mg/dL
RALB [5]: 3.3 g/dL
TBIL [5]: 0.1 mg/dL
TC [5]: 76.8 mg/dL
TG [5]: 83.4 mg/dL
TP [5]: 5.6 g/dL
gamma-GTP [5]: 1.4 IU/L
TERMINAL_BW [6]: 262.7 g
TERMINAL_BW [7]: 309.6 g
TERMINAL_BW [8]: 389.8 g
APTT [6]: 19.1 s
Bas [6]: 0%
Eos [6]: 1%
Fbg [6]: 216.2 mg/dL
Hb [6]: 13.8 g/dL
Ht [6]: 39.9%
Lym [6]: 82%
MCH [6]: 21.1 pg
MCHC [6]: 34.5%
MCV [6]: 61.3 fL
Mono [6]: 1.8%
Neu [6]: 13.6%
PT [6]: 12.5 s
Plat [6]: 116 x10_4/uL
RBC [6]: 651.8 x10_4/ul
Ret [6]: 5.1%
WBC [6]: 110 x10_2/uL
APTT [7]: 19.4 s
Bas [7]: 0%
Eos [7]: 1%
Fbg [7]: 214 mg/dL
Hb [7]: 14.5 g/dL
Ht [7]: 41.3%
Lym [7]: 79.2%
MCH [7]: 21.2 pg
MCHC [7]: 35.1%
MCV [7]: 60.4 fL
Mono [7]: 2.6%
Neu [7]: 16.2%
PT [7]: 12.5 s
Plat [7]: 107.7 x10_4/uL
RBC [7]: 684.4 x10_4/ul
Ret [7]: 4.6%
WBC [7]: 116.3 x10_2/uL
APTT [8]: 19.7 s
Bas [8]: 0%
Eos [8]: 1%
Fbg [8]: 231 mg/dL
Hb [8]: 15.1 g/dL
Ht [8]: 42.4%
Lym [8]: 81.2%
MCH [8]: 19.8 pg
MCHC [8]: 35.6%
MCV [8]: 55.6 fL
Mono [8]: 2.4%
Neu [8]: 14.6%
PT [8]: 12.6 s
Plat [8]: 105.8 x10_4/uL
RBC [8]: 764.8 x10_4/ul
Ret [8]: 3.2%
WBC [8]: 113.7 x10_2/uL
KIDNEY_L [6]: 1.1 g
KIDNEY_R [6]: 1.1 g
KIDNEY_TOTAL [6]: 2.2 g
KIDNEY_L [7]: 1.2 g
KIDNEY_R [7]: 1.2 g
KIDNEY_TOTAL [7]: 2.3 g
KIDNEY_L [8]: 1.4 g
KIDNEY_R [8]: 1.4 g
KIDNEY_TOTAL [8]: 2.7 g
LIVER [6]: 11.9 g
LIVER [7]: 13 g
LIVER [8]: 15 g
A/G [6]: 1.6
ALP [6]: 780.6 IU/L
ALT [6]: 31.8 IU/L
AST [6]: 63.8 IU/L
BUN [6]: 16.4 mg/dL
CRE [6]: 0.4 mg/dL
Ca [6]: 10.6 mg/dL
Cl [6]: 103.4 meq/L
DBIL [6]: 0.074 mg/dL
GLC [6]: 232 mg/dL
IP [6]: 7.2 mg/dL
K [6]: 3.7 meq/L
LDH [6]: 217.4 IU/L
Na [6]: 140.6 meq/L
PL [6]: 149.6 mg/dL
RALB [6]: 3.5 g/dL
TBIL [6]: 0.1 mg/dL
TC [6]: 72.8 mg/dL
TG [6]: 71 mg/dL
TP [6]: 5.7 g/dL
gamma-GTP [6]: 1.4 IU/L
A/G [7]: 1.5
ALP [7]: 842.8 IU/L
ALT [7]: 34 IU/L
AST [7]: 65.6 IU/L
BUN [7]: 16.8 mg/dL
CRE [7]: 0.5 mg/dL
Ca [7]: 10.5 mg/dL
Cl [7]: 103.4 meq/L
DBIL [7]: 0.1 mg/dL
GLC [7]: 203.8 mg/dL
IP [7]: 6.5 mg/dL
K [7]: 3.6 meq/L
LDH [7]: 196 IU/L
Na [7]: 141.4 meq/L
PL [7]: 153.6 mg/dL
RALB [7]: 3.5 g/dL
TBIL [7]: 0.2 mg/dL
TC [7]: 70.6 mg/dL
TG [7]: 133.4 mg/dL
TP [7]: 5.8 g/dL
gamma-GTP [7]: 1.2 IU/L
A/G [8]: 1.3
ALP [8]: 678.2 IU/L
ALT [8]: 38.8 IU/L
AST [8]: 65.8 IU/L
BUN [8]: 18 mg/dL
CRE [8]: 0.5 mg/dL
Ca [8]: 10.5 mg/dL
Cl [8]: 102.8 meq/L
DBIL [8]: 0.1 mg/dL
GLC [8]: 215 mg/dL
IP [8]: 6 mg/dL
K [8]: 3.6 meq/L
LDH [8]: 185.6 IU/L
Na [8]: 141.4 meq/L
PL [8]: 154 mg/dL
RALB [8]: 3.6 g/dL
TBIL [8]: 0.2 mg/dL
TC [8]: 71.6 mg/dL
TG [8]: 129.8 mg/dL
TP [8]: 6.3 g/dL
gamma-GTP [8]: 0.6 IU/L
